In US20050112573A1, “Method of detecting toxic substance” (priority 2001, published 2005):

Test system: yeast genes (level of expressed mRNA)
Experiment: DNA chip analysis of expressed mRNA of yeast genes after 2 h culture with a toxic chemical substance
Type: cell-based, Saccharomyces cerevisiae S288C
Settings: for The level of expressed mRNA in the presence of chemical substance/ (ratio to absence): transport facilitation protein gene; for The level of expressed mRNA in the presence of chemical substance/: ratio to no chemical; for The level of expressed mRNA in the presence of chemical substance/ (ratio to absence of chemical substance): stress protein genes, DNA chip
Summary of the method: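 S. cerevisiae S288C in YPD at 25 °C was exposed at log phase for 2 h to a growth-inhibiting, non-lethal concentration of the chemical. Poly(A) mRNA was reverse-transcribed with Cy3- or Cy5-dUTP and hybridized to a whole-genome yeast DNA chip (65 °C, >12 h). Values are fluorescence ratios versus untreated cells.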

sodium dodecylbenzosulfonate [(17)]
level of expressed mRNA in the presence of chemical substance/in its absence (gene YNL037C): 0.9
level of expressed mRNA in the presence of chemical substance/in its absence (gene YNL045W): 1.1
The level of expressed mRNA in the presence of chemical substance/absence: YNL058C (gene YNL058C): 0.8
The level of expressed mRNA in the presence of chemical substance/absence: YNL063W (gene YNL063W): 0.9
level of expressed mRNA in the presence of chemical substance/in its absence (gene YNL104C): 0.9
level of expressed mRNA in the presence of chemical substance/in its absence (gene YNL106C): 1.1
level of expressed mRNA in the presence of chemical substance/in its absence (gene YNL130C): 0.7
level of expressed mRNA in the presence of chemical substance/in its absence (gene YNL169C): 1.1
The level of expressed mRNA in the presence of chemical substance/absence: YNL176C (gene YNL176C): 0.6
The level of expressed mRNA in the presence of chemical substance/absence: YNL181W (gene YNL181W): 0.8
The level of expressed mRNA in the presence of chemical substance/absence: YNL191W (gene YNL191W): 0.5
The level of expressed mRNA in the presence of chemical substance/absence: YNL194C (gene YNL194C): 0.8
The level of expressed mRNA in the presence of chemical substance/absence: YNL200C (gene YNL200C): 1.2
The level of expressed mRNA in the presence of chemical substance/absence: YNL212W (gene YNL212W): 0.9
level of expressed mRNA in the presence of chemical substance/in its absence (gene YNL231C): 3.1
The level of expressed mRNA in the presence of chemical substance/absence: YNL253W (gene YNL253W): 1.1
The level of expressed mRNA in the presence of chemical substance/absence: YNL265C (gene YNL265C): 0.9
The level of expressed mRNA in the presence of chemical substance/absence: YNL276C (gene YNL276C): 1.1
level of expressed mRNA in the presence of chemical substance/in its absence (gene YNL322C): 0.9
level of expressed mRNA in the presence of chemical substance/in its absence (gene YNR002C): 1.5
level of expressed mRNA in the presence of chemical substance/in its absence (gene YNR019W): 2.4
level of expressed mRNA in the presence of chemical substance/in its absence (gene YNR033W): 0.9
The level of expressed mRNA in the presence of chemical substance/absence: YNR051C (gene YNR051C): 0.7
level of expressed mRNA in the presence of chemical substance/in its absence (gene YNR059W): 2.6
The level of expressed mRNA in the presence of chemical substance/absence: YOL026C (gene YOL026C): 2.1
The level of expressed mRNA in the presence of chemical substance/absence: YOL030W (gene YOL030W): 0.9
level of expressed mRNA in the presence of chemical substance/in its absence (gene YOL058W): 1.2
level of expressed mRNA in the presence of chemical substance/in its absence (gene YOL126C): 1.6
level of expressed mRNA in the presence of chemical substance/in its absence (gene YOL143C): 1.8
level of expressed mRNA in the presence of chemical substance/in its absence (gene YOL153C): 1.1
level of expressed mRNA in the presence of chemical substance/in its absence (gene YOL157C): 1.4
The level of expressed mRNA in the presence of chemical substance/absence: YOR022C (gene YOR022C): 1.1
The level of expressed mRNA in the presence of chemical substance/absence: YOR087W (gene YOR087W): 0.8
The level of expressed mRNA in the presence of chemical substance/absence: YOR088W (gene YOR088W): 0.7
level of expressed mRNA in the presence of chemical substance/in its absence (gene YOR099W): 1.2
level of expressed mRNA in the presence of chemical substance/in its absence (gene YOR130C): 1.5
level of expressed mRNA in the presence of chemical substance/in its absence (gene YOR136W): 0.8
The level of expressed mRNA in the presence of chemical substance/absence: YOR138C (gene YOR138C): 1.1
The level of expressed mRNA in the presence of chemical substance/absence: YOR155C (gene YOR155C): 0.8
The level of expressed mRNA in the presence of chemical substance/absence: YOR253W (gene YOR253W): 0.9
The level of expressed mRNA in the presence of chemical substance/absence: YOR267C (gene YOR267C): 1.3
The level of expressed mRNA in the presence of chemical substance/absence: YOR325W (gene YOR325W): 0.8
level of expressed mRNA in the presence of chemical substance/in its absence (gene YOR336W): 1.0
level of expressed mRNA in the presence of chemical substance/in its absence (gene YOR344C): 1.3
level of expressed mRNA in the presence of chemical substance/in its absence (gene YOR347C): 1.7
The level of expressed mRNA in the presence of chemical substance/absence: YPL005W (gene YPL005W): 1.2
level of expressed mRNA in the presence of chemical substance/in its absence (gene YPL017C): 1.3
The level of expressed mRNA in the presence of chemical substance / the level in the absence of chemical substance, yeast gene YPL107W (gene YPL107W, DNA chip fluorescence ratio to control without chemical, 2 hours culture with chemical, growth-inhibiting non-lethal concentration): 1.0
The level of expressed mRNA in the presence of chemical substance / the level in the absence of chemical substance, yeast gene YPL138C (gene YPL138C, DNA chip fluorescence ratio to control without chemical, 2 hours culture with chemical, growth-inhibiting non-lethal concentration): 0.8
The level of expressed mRNA in the presence of chemical substance/absence: YPL150W (gene YPL150W): 1.4
The level of expressed mRNA in the presence of chemical substance/absence: YPL151C (gene YPL151C): 0.8
The level of expressed mRNA in the presence of chemical substance/absence: YPL152W (gene YPL152W): 1.2
The level of expressed mRNA in the presence of chemical substance/absence: YPL168W (gene YPL168W): 1.1
The level of expressed mRNA in the presence of chemical substance/absence: YPL180W (gene YPL180W): 1.0
The level of expressed mRNA in the presence of chemical substance/absence: YPL188W (gene YPL188W): 0.7
The level of expressed mRNA in the presence of chemical substance/absence: YPL221W (gene YPL221W): 1.5
The level of expressed mRNA in the presence of chemical substance/absence: YPL225W (gene YPL225W): 1.0
The level of expressed mRNA in the presence of chemical substance/absence: YPL249C (gene YPL249C): 0.8
The level of expressed mRNA in the presence of chemical substance/absence: YPL260W (gene YPL260W): 0.8
level of expressed mRNA in the presence of chemical substance/in its absence (gene YPL265W): 0.5
level of expressed mRNA in the presence of chemical substance/in its absence (gene YPR006C): 1.8
level of expressed mRNA in the presence of chemical substance/in its absence (gene YPR026W): 0.9
The level of expressed mRNA in the presence of chemical substance/absence: YPR049C (gene YPR049C): 1.0
The level of expressed mRNA in the presence of chemical substance/absence: YPR061C (gene YPR061C): 1.1
The level of expressed mRNA in the presence of chemical substance/absence: YPR093C (gene YPR093C): 1.4
The level of expressed mRNA in the presence of chemical substance/absence: YPR146C (gene YPR146C): 1.0
The level of expressed mRNA in the presence of chemical substance/absence: YPR148C (gene YPR148C): 0.9
The level of expressed mRNA in the presence of chemical substance/absence: YPR150W (gene YPR150W): 0.9
The level of expressed mRNA in the presence of chemical substance/absence: YPR158W (gene YPR158W): 0.9
The level of expressed mRNA in the presence of chemical substance/absence: YPR169W (gene YPR169W): 1.1
The level of expressed mRNA in the presence of chemical substance/absence: YPR172W (gene YPR172W): 1.1
The level of expressed mRNA in the presence of chemical substance/absence: YPR174C (gene YPR174C): 1.4
The level of expressed mRNA in the presence of chemical substance/in the absence of chemical substance (yeast gene YAL023C): 1.0
The level of expressed mRNA in the presence of chemical substance/in the absence of chemical substance (yeast gene YAL060W): 1.1
The level of expressed mRNA in the presence of chemical substance/in the absence of chemical substance (yeast gene YAL062W): 1.0
The level of expressed mRNA in the presence of chemical substance/ (ratio to absence) (yeast gene YAL067C): 1.0
The level of expressed mRNA in the presence of chemical substance/The level of expressed mRNA in the absence of chemical substance (yeast gene YAR010C): 1.5
The level of expressed mRNA in the presence of chemical substance/The level of expressed mRNA in the absence of chemical substance (yeast gene YBL005W-A): 1.3
The level of expressed mRNA in the presence of chemical substance/ (ratio to absence) (yeast gene YBL030C): 1.0
The level of expressed mRNA in the presence of chemical substance/ (ratio to absence), gene YBL038W (yeast gene YBL038W, mitochondria-located protein genes, 2 h culture with chemical): 1.2
The level of expressed mRNA in the presence of chemical substance/The level of expressed mRNA in the absence of chemical substance (yeast gene YBL041W): 1.3
The level of expressed mRNA in the presence of chemical substance/The level of expressed mRNA in the absence of chemical substance (yeast gene YBL043W): 2.3
The level of expressed mRNA in the presence of chemical substance/ (yeast gene YBL065W): 1.1
The level of expressed mRNA in the presence of chemical substance/The level of expressed mRNA in the absence of chemical substance (yeast gene YBL078C): 1.8
The level of expressed mRNA in the presence of chemical substance/ (ratio to absence of chemical substance) (yeast gene YBL093C): 1.4
The level of expressed mRNA in the presence of chemical substance/ (ratio to absence) (yeast gene YBL099W): 0.7
The level of expressed mRNA in the presence of chemical substance/in the absence of chemical substance (yeast gene YBR006W): 1.2
The level of expressed mRNA in the presence of chemical substance/ (in its absence), gene YBR036C (yeast gene YBR036C, ratio of DNA chip fluorescence intensity to that without chemical substance): 2.1
The level of expressed mRNA in the presence of chemical substance/ (ratio to absence of chemical substance) (yeast gene YBR044C): 0.9
The level of expressed mRNA in the presence of chemical substance/ (yeast gene YBR047W): 1.3
The level of expressed mRNA in the presence of chemical substance/ (ratio to absence) (yeast gene YBR052C): 1.8
The level of expressed mRNA in the presence of chemical substance/in the absence of chemical substance (yeast gene YBR056W): 2.4
The level of expressed mRNA in the presence of chemical substance/ (ratio to absence) (yeast gene YBR068C): 1.1
The level of expressed mRNA in the presence of chemical substance/ (yeast gene YBR101C): 0.9
